The text below walks through data of patent US7271195B2, “Carbonyl compounds as inhibitors of histone deacetylase for the treatment of disease” (Kalypsys, Inc., priority 2003, dated 2007).

Structures are written as SMILES. Read-outs that look alike come from different tables or passages of the source.

Experiment [1] relates to HDAC in cells (cellular histone acetylation levels). Put plainly: Cellular histone hyperacetylation assay (cytoblot), cellular HDAC inhibition. The class given is cell-based. Conditions: for IC50 / Cellular IC50: "active" = inhibitory activity but cellular IC50 could not be determined; for Emax: read-out: % Max. Inhibition (cellular). How it is done: Cellular Histone Hyperacetylation Assays:
These two secondary assays evaluates a compound's ability to inhibit HDAC in cells by measuring cellular histone acetylation levels. The cytoblot facilitates quantitative EC50 information for cellular HDAC inhibition. Transformed cell lines (e.g. HeLa, A549, MCF-7) are cultured under standard media and culture conditions prior to plating.
Cells (approx. 2,500/well) are allowed to adhere 10-24 hours to wells of a 384-well Greiner PS assay plate in media containing 1-5% serum. Cells are treated with appropriate compound and specific concentrations for 0 to 24 hours. Cells are washed once with PBS (60 ul) and then fixed (95% ethanol, 5% acetic acid or 2% PFA) for 1 minute at RT (30 ul). Cells are blocked with 1% BSA for 1 hour and washed and stained with antibody (e.g. anti-Acetylated Histone H3, Upstate Biotechnology), followed by washing and incubation with an appropriate secondary antibody conjugated to HRP or fluorophore. For luminescence assays, signal is generated using Luminol substrate (Santa Cruz Biotechnology) and detected using an Aquest plate reader (Molecular Devices).

The subject of experiment [2] is HDAC. Conditions: published value for positive control; read-out: published in vitro IC50; cited from earlier work.
Experiment [3] relates to T1, HDAC.
T1 construct: in vitro IC50; other: in vitro HDAC enzyme source
Description: In vitro HDAC-inhibition assay (Fluor de Lys fluorescent substrate). It counts as biochemical. Conditions: for IC50: in vitro HDAC enzyme source; for % Max Inhibition (in vitro): maximum inhibition. How it is done: In vitro HDAC-inhibition Assay:
This assay measures a compound's ability to inhibit acetyl-lysine deacetylation in vitro and was used as both a primary screening method as well as for IC50 determinations of confirmed inhibitors. The assay is performed in vitro using an HDAC enzyme source (e.g. partially purified nuclear extract or immunopurified HDAC complexes) and a proprietary fluorescent substrate/developer system (HDAC Quantizyme Fluor de Lys Fluorescent Activity Assay, BIOMOL). The assay is run in 1,536-well Greiner white-bottom plates using the following volumes and order of addition:
Step 1: Enzyme (2.5 ul) source added to plate (from refrigerated container) • Step 2: Compounds (50 nl) added with pin transfer device • Step 3: Fluor de Lys (2.5 ul) substrate added, incubate at RT, 30 minutes • Step 4: Developer (5 ul) solution is added (containing TSA), to stop reaction • Step 5: Plate Reader—data collection
The deacetylated fluorophore is excited with 360 nm light and the emitted light (460 nm) is detected on an automated fluorometric plate reader (Aquest, Molecular Devices).

For the molecule `CC(/C=C/C(=O)NO)=C\[C@@H](C)C(=O)c1ccc(N(C)C)cc1` [TSA, reference compound], the IC50 was less than 1000 nM in experiment [1], 3 to 6 nM in the experiment with HDAC [2] and less than 1000 nM with HDAC [3]. The “% Max. Inhibition (cellular)” value in experiment [1] (maximum inhibition) is on record as 100%. In addition, in the experiment on HDAC [3], the “% Max Inhibition (in vitro)” value worked out at 100%.
In experiment [1], `CC(=O)Nc1ccc(S(=O)(=O)Nc2ccc(C(=O)CSC3=NCCS3)cc2)cc1` [Compound 29, N-(4-{4-[2(4,5-Dihydro-thiazol-2-ylsulfanyl)-acetyl]-phenylsulfamoyl}-phenyl)-acetamide] gave an IC50 of 1000 to 10000 nM. In addition, in experiment [1] (maximum inhibition), the Emax is greater than 75%. Further, in the experiment with HDAC [3], the IC50 lay within 1000 to 10000 nM and the “% Max Inhibition (in vitro)” value is listed as greater than 75%.
Turning to `CCN(CC)c1ccc(C(=O)CSC#N)cc1` [Compound 13], in experiment [1], the “Cellular IC50” value was “active”. For the same molecule, in the experiment on HDAC [3], the IC50 fell in the range of 1000 to 10000 nM and the “% Max Inhibition (in vitro)” value is given as greater than 75%.
Molecule `O=C(CSSCC(=O)c1ccc(NS(=O)(=O)c2ccc(OC(F)(F)F)cc2)cc1)c1ccc(NS(=O)(=O)c2ccc(OC(F)(F)F)cc2)cc1` [Compound 47, Thioacetic acid S-{2-oxo-2-[4-(4-trifluoromethoxy-benzenesulfonylamino)-phenyl]-ethyl}disulfide] showed an IC50 in experiment [1] of less than 1000 nM. Besides, the Emax in experiment [1] (maximum inhibition) was greater than 75%. In the experiment with HDAC [3], the IC50 is less than 1000 nM and the “% Max Inhibition (in vitro)” value was greater than 75%.
Regarding `COc1ccc(C(=O)CSC2=NCCS2)cc1` [Compound 23], the “Cellular IC50” value in experiment [1] is “active”. Further, in the experiment with HDAC [3], the IC50 is greater than 10000 nM and the “% Max Inhibition (in vitro)” value was greater than 50%.
